Measured values published in patent US5439930A, “Biologically active n-acylprolydipeptides having antiamnestic, antihypoxic and anorexigenic effects” (Russian-American Institute for New Drug Development, priority 1992, dated 1995).
Where a SMILES comes first, the peptide text is derived from it. The star is where a group is joined. Isovaleryl = CC(C)CC(=O)*; Hexanoyl = CCCCCC(=O)*; PhAc = O=C(Cc1ccccc1)*; Bz = O=C(c1ccccc1)*

Assays:
Type in all cases: in vivo
[1] = test system: memory decline evoked by scopolamine in randomly bred male albino rats; test: Passive avoidance step-through, amnesia by scopolamine
Protocol: (§1) Compounds according to the present invention, including the compounds described in Examples 1-11, were checked for their ability to prevent memory decline evoked by maximal electroshock (MES) or scopolamine in the passive avoidance step-through paradigm (equipment of Laffaette Co., USA). The experiments described herein (Examples 12, 13, 15, and 19) were carried out using randomly bred male albino rats of a weight of approximately 180-220 g. […] Amnesia was produced by transcorneal maximal electroshock immediately after learning or scopolamine (1 mg/kg, subcutaneously) administration 30 min. before learning. The retention was tested 24 hours later by the measurement of latency of the entering of the dark compartment.
(§2) The degree of antiamnestic activity was estimated according to Buttler's modified formula: [formula]
(§3) The higher the magnitude of this indicator the more is the antiamnestic activity.

[2] = test system: memory decline evoked by maximal electroshock (MES) in randomly bred male albino rats; test: Passive avoidance step-through, amnesia by maximal electroshock (MES); settings: for Latency (sec.) Amnesia + subst. / AA % (antiamnestic activity, Butler's modified formula) / inhibition in vivo at 0.1 mg/kg: 0.1 mg/kg i.p. 15 min before training; for Latency (sec.) Amnesia + subst.: MES after learning, retention 24 h later; for inhibition in vivo at 0.1 mg/kg: Rattus norvegicus, ip, 24 h, read-out: AA % (antiamnestic activity, Butler's modified formula)
Protocol: as §1, §2, §3

[3] = test system: phenazepam withdrawn male albino rats; test: Threshold of aggressive behavior during phenazepam withdrawal; settings: immediately after the last administration of phenazepam (2 mg/kg i.p. daily for 57 days)
Protocol: The influence of Compound I on withdrawal syndrome caused by the interruption of chronic administration of benzodiazepine tranquilizer phenazepam (T. A. Voronina et al., In Fenazepam; A. V. Bogatsky, Ed.; Naukova dumka Publishers: Kiev, 1982; pp. 67-169) was studied in experiments on male albino rats weighing 190-200 g at the beginning and 300-350 g at the end of the experiment.
Phenazepam (2 mg/kg intraperitoneally) or saline (control group of rats) were given once daily for 57 days. The withdrawal syndrome occurred 24-72 hours after the last injection. The withdrawal syndrome in rats consisted in "anxiogenic-like" state aggressiveness and accelerated development of kindled seizures caused by pentylentetrazol. Compound I was administered to the withdrawn rats in doses of 0.5 mg/kg intraperitoneally 15 minutes prior to testing.
The threshold of the aggressive behavior was determined in the experiment on the rats (R. Tedeshi et al., J. Pharmacol. Exp. Ther., 125, 28-34 (1959)). The paired rats were placed on the electrified floor; the strength of the current, which provokes the fighting, was registered.

[4] = test system: undertraining of the passive avoidance reflex, rats; test: Passive avoidance with undertraining, different regimes of administration; settings: 200 mg/kg i.p.
[5] = Level of active dose for the described nootropic activities; settings: above-described nootropic activities
Protocol: The compounds of the present invention were assessed for their ability to prevent memory impairment induced by maximal electroshock, or scopolamine administration. Unlike N-acylpyrrolidine compounds of the type described by Tanaka et al., supra, the compounds of the present invention are not believed to inhibit prolyl endopeptidase activity. […] The Compound I prevents mental decline, induced by frontal lobectomy (Example 15), prenatal alcoholization or prenatal hypoxia (Example 16) and aging (Example 17).
In contrast to this, substances in accordance with the present invention exert their effects in a dose between about 0.1-0.5 mg/kg.

[6] = 0.1 mg/kg 15 min before learning, scopolamine 1 mg/kg s.c.
[7] = 0.1 mg/kg 15 min before learning, scopolamine 1 mg/kg s.c. 30 min before trial
[8] = 200 mg/kg, scopolamine 1 mg/kg s.c.

Q: For `NC(=O)CNC(=O)[C@@H]1CCCN1C(=O)Cc1ccccc1` [II, N-phenacetyl-L-prolylglycine amide] (PhAc-Pro-Gly-NH2), which “Aa (antiamnestic activity)” value [1, 6] is on record?
A: -9.0

Q: And the “Latency (sec.) Scopolamine + substance” value [1, 7]?
A: 45.6 s

Q: And the “Latency (sec.) Amnesia + subst.” value [2]?
A: 56 s

Q: And the “AA % (antiamnestic activity, Butler's modified formula)” value ([2]; MES amnesia)?
A: 27%

Q: What does the source list for `CCOC(=O)CCNC(=O)[C@@H]1CCCN1C(=O)Cc1ccccc1` [III, N-phenacetyl-L-prolyl-β-alanine ethyl ester]?
A: Aa (antiamnestic activity) [1, 6]: 23.7; Latency (sec.) Scopolamine + substance [1, 7]: 78.6 s; Latency (sec.) Amnesia + subst. [2]: 56 s; AA % (antiamnestic activity, Butler's modified formula) ([2]; MES amnesia): 29%

Q: Which “Aa (antiamnestic activity)” value [1, 6] does the source give for `NC(=O)CCNC(=O)[C@@H]1CCCN1C(=O)Cc1ccccc1` [IV, N-phenylacetyl-L-prolyl-β-alanine amide] here?
A: 52.1

Q: And the “Latency (sec.) Scopolamine + substance” value [1, 7]?
A: 94.9 s

Q: What about the inhibition in vivo at 0.1 mg/kg ([2]; MES amnesia) of the same compound?
A: 52%

Q: With `CCOC(=O)[C@@H](NC(=O)[C@@H]1CCCN1C(=O)Cc1ccccc1)C(C)C` [IX, N-phenylacetyl-L-prolyl-L-valine ethyl ester] (PhAc-Pro-Val-OEt) as the compound, how does the inhibition in vivo at 0.1 mg/kg ([2]; MES amnesia) read?
A: 0.0001%

Q: For `O=C1CN=C(c2ccccc2Cl)c2cc(Br)ccc2N1` [Phenazepam, reference compound], which “Aggression Threshold (mA)” value [3] is on record?
A: 2.16 ± 0.2 mA

Q: Which “Mnestic activity (Ma), administration 15 min. before retrieval” value [4] does the source give for `NC(=O)CN1CCCC1=O` [Piracetam, N-carbamido-methyl-pyrrolidone-2, reference compound] here?
A: -15%

Q: And the “Mnestic activity (Ma), administration 15 min. before trial” value [4]?
A: 20.0%

Q: What about the “Mnestic activity (Ma), administration immediately after trial” value [4] of the same compound?
A: 1.0%

Q: What about the “Level of active dose” value [5] of the same compound?
A: 200 to 800 mg/kg

Q: What about the “Aa (antiamnestic activity)” value [1, 8] of the same compound?
A: 39.3

Q: What about the “Latency (sec.) Scopolamine + substance” value [1, 8] of the same compound?
A: 64.2 s

Q: And the “AA % (antiamnestic activity)” value ([2]; 200 mg/kg, MES amnesia)?
A: 30.5%

Q: For `CCOC(=O)C[C@H](NC(=O)[C@@H]1CCCN1C(=O)Cc1ccccc1)C(=O)OCC` [V, N-phenylacetyl-L-prolyl-L-aspartic acid diethyl ester] (PhAc-Pro-Asp(OEt)-OEt), which “Aa (antiamnestic activity)” value [1, 6] is on record?
A: -10

Q: And the “Latency (sec.) Scopolamine + substance” value [1, 7]?
A: 48.1 s

Q: What about the inhibition in vivo at 0.1 mg/kg ([2]; MES amnesia) of the same compound?
A: 29.5%

Q: With `NC(=O)C[C@H](NC(=O)[C@@H]1CCCN1C(=O)Cc1ccccc1)C(N)=O` [VI, N-phenylacetyl-L-prolyl-L-asparagine amide] (PhAc-Pro-Asn-NH2) as the compound, how does the “Aa (antiamnestic activity)” value [1, 6] read?
A: -4.3

Q: And the “Latency (sec.) Scopolamine + substance” value [1, 7]?
A: 46.3 s

Q: What about the inhibition in vivo at 0.1 mg/kg ([2]; MES amnesia) of the same compound?
A: 26%

Q: With `CCOC(=O)CNC(=O)[C@@H]1CCCN1C(=O)c1ccccc1` [VII, N-benzoyl-L-prolylglycine ethyl ester] (Bz-Pro-Gly-OEt) as the compound, how does the inhibition in vivo at 0.1 mg/kg ([2]; MES amnesia) read?
A: 37%

Q: With `CCOC(=O)CNC(=O)[C@@H]1CCCN1C(=O)CC(C)C` [VIII, N-isovaleryl-L-prolylglycine ethyl ester] (Isovaleryl-Pro-Gly-OEt) as the compound, how does the inhibition in vivo at 0.1 mg/kg ([2]; MES amnesia) read?
A: 28%

Q: Which inhibition in vivo at 0.1 mg/kg ([2]; MES amnesia) does the source give for `CCOC(=O)[C@@H](NC(=O)[C@@H]1CCCN1C(=O)c1ccccc1)C(C)C` [X, N-benzoyl-L-prolyl-L-valine ethyl ester] (Bz-Pro-Val-OEt) here?
A: 38%

Q: With `CCOC(=O)CCNC(=O)[C@@H]1CCCN1C(=O)c1ccccc1` [XI, N-benzoyl-L-prolyl-β-alanine ethyl ester] as the compound, how does the inhibition in vivo at 0.1 mg/kg ([2]; MES amnesia) read?
A: 21.9%

Q: For `NC(=O)CCNC(=O)[C@@H]1CCCN1C(=O)c1ccccc1` [XII, N-benzoyl-L-prolyl-β-alanine amide], which inhibition in vivo at 0.1 mg/kg ([2]; MES amnesia) is on record?
A: 15.2%

Q: Which inhibition in vivo at 0.1 mg/kg ([2]; MES amnesia) does the source give for `NC(=O)CNC(=O)[C@@H]1CCCN1C(=O)c1ccccc1` [XIII, N-benzoyl-L-prolylglycine amide] (Bz-Pro-Gly-NH2) here?
A: -17.6%

Q: For `CNC(=O)CNC(=O)[C@@H]1CCCN1C(=O)Cc1ccccc1` [XIV, N-phenylacetyl-L-prolylglycine N-methylamide] (PhAc-Pro-Gly-NHMe), which inhibition in vivo at 0.1 mg/kg ([2]; MES amnesia) is on record?
A: -7.6%

Q: For `COC(=O)CCCNC(=O)[C@@H]1CCCN1C(=O)Cc1ccccc1` [XIX, N-phenylacetyl-L-prolyl-GABA methylester], which “Latency (sec.) Amnesia + subst.” value [2] is on record?
A: 95.8 s

Q: And the “AA % (antiamnestic activity, Butler's modified formula)” value ([2]; MES amnesia)?
A: 45.4%

Q: With `CN(C)C(=O)CNC(=O)[C@@H]1CCCN1C(=O)Cc1ccccc1` [XV, N-phenylacetyl-L-prolylglycine dimethylamide] (PhAc-Pro-Gly-NMe2) as the compound, how does the inhibition in vivo at 0.1 mg/kg ([2]; MES amnesia) read?
A: 23%

Q: Which inhibition in vivo at 0.1 mg/kg ([2]; MES amnesia) does the source give for `CCOC(=O)CC[C@H](NC(=O)[C@@H]1CCCN1C(=O)Cc1ccccc1)C(=O)OCC` [XVI, N-phenylacetyl-L-prolyl-L-glutamic acid diethyl ester] (PhAc-Pro-Glu(OEt)-OEt) here?
A: 58.3%

Q: Which inhibition in vivo at 0.1 mg/kg ([2]; MES amnesia) does the source give for `CC(C)C[C@H](NC(=O)[C@@H]1CCCN1C(=O)Cc1ccccc1)C(N)=O` [XVII, N-phenylacetyl-L-prolyl-L-leucine amide] (PhAc-Pro-Leu-NH2) here?
A: 7.9%

Q: Which inhibition in vivo at 0.1 mg/kg ([2]; MES amnesia) does the source give for `O=C(O)CNC(=O)[C@@H]1CCCN1C(=O)Cc1ccccc1` [XVIII, N-phenylacetyl-L-prolylglycine] (PhAc-Pro-Gly-OH) here?
A: 9.8%

Q: With `CCOC(=O)[C@H](C)NC(=O)[C@@H]1CCCN1C(=O)Cc1ccccc1` [XX, N-phenylacetyl-L-prolyl-L-alanine ethyl ester] (PhAc-Pro-Ala-OEt) as the compound, how does the inhibition in vivo at 0.1 mg/kg ([2]; MES amnesia) read?
A: 10.8%

Q: Which inhibition in vivo at 0.1 mg/kg ([2]; MES amnesia) does the source give for `CCCCCC(=O)N1CCC[C@H]1C(=O)NCC(=O)OCC` [XXI, N-caproyl-L-prolylglycine ethyl ester] (Hexanoyl-Pro-Gly-OEt) here?
A: 20.2%

Q: With `CCOC(=O)CNC(=O)[C@@H]1CCCN1CCCCc1ccccc1` [XXIII, N-phenylbutyl-L-prolyl-glycine ethylester] as the compound, how does the inhibition in vivo at 0.1 mg/kg ([2]; MES amnesia) read?
A: 12.6%
